From the NIST ThermoML archive (doi:10.1016/j.jct.2012.03.003)

Assay: xn = mol fraction of the nth substance listed
Conditions: Liquid, Vibrating tube method

COc1cc2c(cc1O)CC1c3c(cc(O)c(OC)c3-2)CCN1C (stereo not given) [boldine] + CCO
Conditions	mass density [kg/m3]
352.81 K, 16000 kPa, x1 = 0.0012	755.72
352.81 K, 16000 kPa, x1 = 0.0136	781.95
352.81 K, 17000 kPa, x1 = 0.0012	756.73
352.81 K, 17000 kPa, x1 = 0.0136	782.94
352.81 K, 18000 kPa, x1 = 0.0012	757.73
352.81 K, 18000 kPa, x1 = 0.0136	783.9
352.81 K, 19000 kPa, x1 = 0.0012	758.72
352.81 K, 19000 kPa, x1 = 0.0136	784.85
352.81 K, 20000 kPa, x1 = 0.0012	759.69
352.81 K, 20000 kPa, x1 = 0.0136	785.8
352.82 K, 1000 kPa, x1 = 0.0267	792.92
352.82 K, 2000 kPa, x1 = 0.0267	794.02
352.82 K, 3000 kPa, x1 = 0.0267	795.11
352.82 K, 4000 kPa, x1 = 0.0267	796.19
352.82 K, 5000 kPa, x1 = 0.0267	797.27
352.82 K, 6000 kPa, x1 = 0.0267	798.34
352.82 K, 7000 kPa, x1 = 0.0267	799.39
352.82 K, 8000 kPa, x1 = 0.0267	800.44
352.82 K, 9000 kPa, x1 = 0.0267	801.49
352.82 K, 10000 kPa, x1 = 0.0267	802.51
352.82 K, 11000 kPa, x1 = 0.0267	803.53
352.82 K, 12000 kPa, x1 = 0.0267	804.54
352.82 K, 13000 kPa, x1 = 0.0267	805.54
352.82 K, 14000 kPa, x1 = 0.0267	806.51
352.82 K, 15000 kPa, x1 = 0.0267	807.49
352.82 K, 16000 kPa, x1 = 0.0267	808.44
352.82 K, 17000 kPa, x1 = 0.0267	809.38
352.82 K, 18000 kPa, x1 = 0.0267	810.32
352.82 K, 19000 kPa, x1 = 0.0267	811.24
352.82 K, 20000 kPa, x1 = 0.0267	812.14
352.88 K, 1000 kPa, x1 = 0.0074	751.94
352.88 K, 2000 kPa, x1 = 0.0074	753.18
352.88 K, 3000 kPa, x1 = 0.0074	754.29
352.88 K, 4000 kPa, x1 = 0.0074	755.45
352.88 K, 5000 kPa, x1 = 0.0074	756.6
352.88 K, 6000 kPa, x1 = 0.0074	757.75
352.88 K, 7000 kPa, x1 = 0.0074	758.88
352.88 K, 8000 kPa, x1 = 0.0074	760.01
352.88 K, 9000 kPa, x1 = 0.0074	761.12
352.88 K, 10000 kPa, x1 = 0.0074	762.21
352.88 K, 11000 kPa, x1 = 0.0074	763.3
352.88 K, 12000 kPa, x1 = 0.0074	764.38
352.88 K, 13000 kPa, x1 = 0.0074	765.43
352.88 K, 14000 kPa, x1 = 0.0074	766.48
352.88 K, 15000 kPa, x1 = 0.0074	767.51
352.88 K, 16000 kPa, x1 = 0.0074	768.53
352.88 K, 17000 kPa, x1 = 0.0074	769.53
352.88 K, 18000 kPa, x1 = 0.0074	770.52
352.88 K, 19000 kPa, x1 = 0.0074	771.48
352.88 K, 20000 kPa, x1 = 0.0074	772.43
362.76 K, 1000 kPa, x1 = 0.0196	770.85
362.76 K, 2000 kPa, x1 = 0.0196	772.05
362.76 K, 3000 kPa, x1 = 0.0196	773.24
362.76 K, 4000 kPa, x1 = 0.0196	774.43
362.76 K, 5000 kPa, x1 = 0.0196	775.6
362.76 K, 6000 kPa, x1 = 0.0196	776.76
362.76 K, 7000 kPa, x1 = 0.0196	777.92
362.76 K, 8000 kPa, x1 = 0.0196	779.06
362.76 K, 9000 kPa, x1 = 0.0196	780.2
362.76 K, 10000 kPa, x1 = 0.0196	781.28
362.76 K, 11000 kPa, x1 = 0.0196	782.39
362.76 K, 12000 kPa, x1 = 0.0196	783.48
362.76 K, 13000 kPa, x1 = 0.0196	784.55
362.76 K, 14000 kPa, x1 = 0.0196	785.61
362.76 K, 15000 kPa, x1 = 0.0196	786.65
362.76 K, 16000 kPa, x1 = 0.0196	787.68
362.76 K, 17000 kPa, x1 = 0.0196	788.71
362.76 K, 18000 kPa, x1 = 0.0196	789.69
362.76 K, 19000 kPa, x1 = 0.0196	790.66
362.76 K, 20000 kPa, x1 = 0.0196	791.63
362.77 K, 1000 kPa, x1 = 0.0136	755.74
362.77 K, 1000 kPa, x1 = 0.0267	783.02
362.77 K, 2000 kPa, x1 = 0.0136	756.99
362.77 K, 2000 kPa, x1 = 0.0267	784.19
362.77 K, 3000 kPa, x1 = 0.0136	758.22
362.77 K, 3000 kPa, x1 = 0.0267	785.37
362.77 K, 4000 kPa, x1 = 0.0136	759.44
362.77 K, 4000 kPa, x1 = 0.0267	786.53
362.77 K, 5000 kPa, x1 = 0.0136	760.66
362.77 K, 5000 kPa, x1 = 0.0267	787.67
362.77 K, 6000 kPa, x1 = 0.0136	761.86
362.77 K, 6000 kPa, x1 = 0.0267	788.81
362.77 K, 7000 kPa, x1 = 0.0136	763.05
362.77 K, 7000 kPa, x1 = 0.0267	789.94
362.77 K, 8000 kPa, x1 = 0.0136	764.22
362.77 K, 8000 kPa, x1 = 0.0267	791.05
362.77 K, 9000 kPa, x1 = 0.0136	765.39
362.77 K, 9000 kPa, x1 = 0.0267	792.16
362.77 K, 10000 kPa, x1 = 0.0136	766.54
362.77 K, 10000 kPa, x1 = 0.0267	793.25
362.77 K, 11000 kPa, x1 = 0.0136	767.67
362.77 K, 11000 kPa, x1 = 0.0267	794.34
362.77 K, 12000 kPa, x1 = 0.0136	768.79
362.77 K, 12000 kPa, x1 = 0.0267	795.38
362.77 K, 13000 kPa, x1 = 0.0136	769.9
362.77 K, 13000 kPa, x1 = 0.0267	796.43
362.77 K, 14000 kPa, x1 = 0.0136	770.98
362.77 K, 14000 kPa, x1 = 0.0267	797.48
362.77 K, 15000 kPa, x1 = 0.0136	772.08
362.77 K, 15000 kPa, x1 = 0.0267	798.5
362.77 K, 16000 kPa, x1 = 0.0136	773.14
362.77 K, 16000 kPa, x1 = 0.0267	799.5
362.77 K, 17000 kPa, x1 = 0.0136	774.19
362.77 K, 17000 kPa, x1 = 0.0267	800.5
362.77 K, 18000 kPa, x1 = 0.0136	775.2
362.77 K, 18000 kPa, x1 = 0.0267	801.48
362.77 K, 19000 kPa, x1 = 0.0136	776.22
362.77 K, 19000 kPa, x1 = 0.0267	802.44
362.77 K, 20000 kPa, x1 = 0.0136	777.21
362.77 K, 20000 kPa, x1 = 0.0267	803.41
362.78 K, 1000 kPa, x1 = 0.0012	728.71
362.78 K, 2000 kPa, x1 = 0.0012	730.01
362.78 K, 3000 kPa, x1 = 0.0012	731.31
362.78 K, 4000 kPa, x1 = 0.0012	732.6
362.78 K, 5000 kPa, x1 = 0.0012	733.87
362.78 K, 6000 kPa, x1 = 0.0012	735.12
362.78 K, 7000 kPa, x1 = 0.0012	736.36
362.78 K, 8000 kPa, x1 = 0.0012	737.59
362.78 K, 9000 kPa, x1 = 0.0012	738.8
362.78 K, 10000 kPa, x1 = 0.0012	739.99
362.78 K, 11000 kPa, x1 = 0.0012	741.18
362.78 K, 12000 kPa, x1 = 0.0012	742.33
362.78 K, 13000 kPa, x1 = 0.0012	743.48
362.78 K, 14000 kPa, x1 = 0.0012	744.62
362.78 K, 15000 kPa, x1 = 0.0012	745.73
362.78 K, 16000 kPa, x1 = 0.0012	746.83
362.78 K, 17000 kPa, x1 = 0.0012	747.9
362.78 K, 18000 kPa, x1 = 0.0012	748.97
362.78 K, 19000 kPa, x1 = 0.0012	750.01
362.78 K, 20000 kPa, x1 = 0.0012	751.05
362.87 K, 1000 kPa, x1 = 0.0074	741.96
362.87 K, 2000 kPa, x1 = 0.0074	743.24
362.87 K, 3000 kPa, x1 = 0.0074	744.5
362.87 K, 4000 kPa, x1 = 0.0074	745.75
362.87 K, 5000 kPa, x1 = 0.0074	746.98
362.87 K, 6000 kPa, x1 = 0.0074	748.21
362.87 K, 7000 kPa, x1 = 0.0074	749.43
362.87 K, 8000 kPa, x1 = 0.0074	750.63
362.87 K, 9000 kPa, x1 = 0.0074	751.81
362.87 K, 10000 kPa, x1 = 0.0074	752.98
362.87 K, 11000 kPa, x1 = 0.0074	754.12
362.87 K, 12000 kPa, x1 = 0.0074	755.27
362.87 K, 13000 kPa, x1 = 0.0074	756.39
362.87 K, 14000 kPa, x1 = 0.0074	757.5
362.87 K, 15000 kPa, x1 = 0.0074	758.59
362.87 K, 16000 kPa, x1 = 0.0074	759.65
362.87 K, 17000 kPa, x1 = 0.0074	760.72
362.87 K, 18000 kPa, x1 = 0.0074	761.76
362.87 K, 19000 kPa, x1 = 0.0074	762.79
362.87 K, 20000 kPa, x1 = 0.0074	763.81
